Test results from patent publication US8765188B2, “Composition for treating and/or preventing osteoporosis” (Taipei Medical University, priority 2011, dated 2014).
Marks after values point to notes of the source that are not given here.

Tested on: ovariectomized rat model of osteoporosis
Assay: Bone histomorphometry of tibia trabecular bone with micro-CT
Format: in vivo
Conditions: OVX rats, DVAB composition 0.2 g/kg, positive 0.1 mg/5 ml/kg ethinylestridiol, 20 weeks
Description: In an ovariectomized rat model of osteoporosis, rats were divided into sham (5 ml/kg ddH2O without ovariectomy) and ovariectomized (OVX) groups. The OVX rats were then subdivided into two groups orally treated with 5 ml/kg ddH2O (control group) and DVAB composition (0.2 g/kg) daily for 20 weeks. The positive group refers to rats receiving 0.1 mg/5 ml/kg of ethinylestridiol.
Biomechanical strength also was measured by three-point bending test of femur and compression test of vertebra. Furthermore, the tibia from rats was measured by cancellous bone histomorphometry with micro-CT. In this study, percentage of bone volume (BV/TV), trabecular thickness (Tb, Th), trabecular number (Tb, N), trabecular separation (Tb, Sp) and structure model index (SMI) were measured.

## C#C[C@]1(O)CC[C@H]2[C@@H]3CCc4cc(O)ccc4[C@H]3CC[C@@]21C [Positive Control, ethinylestridiol]
  BV/TV: 25.69 +/− 10.41* %
  SMI: 1.29 +/− 0.52^#
  Tb.N: 0.0028 +/− 0.0010* 1/μm
  Tb.Sp: 255.99 +/− 94.24* μm
  Tb.Th: 90.29 +/− 4.01 μm
